The IC50 is the point on the concentration scale where inhibition reaches its midpoint. Higher therefore signals weaker potency.

Drawing on patent US8017612B2, “Piperazine compound and use thereof as a HCV polymerase inhibitor” (priority 2006, dated 2011), this text covers IC50 for ten compounds.

For experiment [1], the target named is T1, HCV polymerase (NS5B) type 1b (Hepatitis C virus genotype 1b, UniProt P26663).
T1 construct: a region encoding NS5B (J Virol 1991 March, 65(3), 1105-13, 544 amino acids after deletion of 47 amino acids on the C-terminal); 6xHis (C); made in house; host or cells: Escherichia coli
The experiment in a line: Assay of enzyme (HCV polymerase) inhibitory activity, type 1b enzyme. Type of experiment: biochemical, HCV BK strain (type 1b). To be noted: HCV polymerase inhibitory activity IC50, 1b, type 1b enzyme. The method in brief:
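Polymerase activity was followed as radiolabelled UTP incorporation by E. coli-expressed, His-tagged NS5B of HCV type 1b lacking its last 47 residues. Conditions: 2 μM UTP, 50 μM other NTPs, Mg2+ buffer at pH 7.5, 25 °C for 60 min. Inhibition relative to compound-free reactions gave IC50.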

Experiment [2] has as its target T2, HCV polymerase (NS5B) type 1a (Hepatitis C virus genotype 1a, UniProt P26664).
T2 construct: made in house; host or cells: Escherichia coli (by the 'similar method' of the 1b enzyme)
The experiment in a line: Assay of enzyme (HCV polymerase) inhibitory activity, type 1a enzyme. Particulars: HCV polymerase inhibitory activity IC50, 1a, type 1a enzyme. Type of experiment: biochemical, HCV type 1a (cloned from the blood of patients). Summed up:
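IC50 values derive from radioactivity of newly synthesized RNA with versus without test compound. The enzyme was C-terminally truncated type 1a NS5B, 1.5 μg/ml, run 60 min at 25° C with 3H-UTP-labelled nucleotides.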

Turning to `O=C(NCc1ccc(OC(F)(F)F)cc1)[C@H]1CN(c2ccc3nccnc3c2)CCN1S(=O)(=O)c1ccc(OC(F)(F)F)cc1` [Example 782, (R)-4-quinoxalin-6-yl-1-(4-trifluoromethoxy-benzenesulfonyl)-piperazine-2-carboxylic acid 4-trifluoromethoxy-benzylamide], the IC50 in experiment [1] and in experiment [2] was below 100 nM throughout.
In the case of `O=C(NCc1ccc(OC(F)(F)F)cc1)[C@H]1CNCCN1S(=O)(=O)c1ccc(OC(F)(F)F)cc1` [Example 783, (R)-1-(4-trifluoromethoxy-benzenesulfonyl)-piperazine-2-carboxylic acid 4-trifluoromethoxy-benzylamide], the IC50 in experiment [1] and in experiment [2] was above 1000 nM each time.
Take `O=C(NCc1ccc(OC(F)(F)F)cc1)[C@H]1CN(c2nc3nc[nH]c(=O)c3s2)CCN1S(=O)(=O)c1ccc(OC(F)(F)F)cc1` [Example 784, (R)-4-(7-oxo-6,7-dihydro-thiazolo[4,5-d]pyrimidin-2-yl)-1-(4-trifluoromethoxy-benzenesulfonyl)-piperazine-2-carboxylic acid 4-trifluoromethoxy-benzylamide]: the IC50 in experiment [1] and in experiment [2] was below 100 nM each time.
On to `O=C(NCc1ccc(OC(F)(F)F)cc1)[C@H]1CN(c2nc3nn[nH]c(=O)c3s2)CCN1S(=O)(=O)c1ccc(OC(F)(F)F)cc1` [Example 785, (R)-4-(4-oxo-3,4-dihydro-thiazolo[4,5-d][1,2,3]triazin-6-yl)-1-(4-trifluoromethoxy-benzenesulfonyl)-piperazine-2-carboxylic acid 4-trifluoromethoxy-benzylamide], for which the IC50 in experiment [1] and in experiment [2] was below 100 nM each time.
In the case of `CCc1ccc(S(=O)(=O)N2CCN(c3cnc(C(=O)O)cn3)C[C@@H]2C(=O)NCc2ccc(OC(F)(F)F)cc2)cc1` [Example 786, (R)-4-(4-ethyl-benzenesulfonyl)-3-(4-trifluoromethoxy-benzylcarbamoyl)-3,4,5,6-tetrahydro-2H-[1,2′]bipyrazinyl-5′-carboxylic acid], the IC50 in experiment [1] and in experiment [2] was below 100 nM throughout.
Regarding `O=C(O)c1cnc(N2CCN(S(=O)(=O)c3ccc(Br)s3)[C@@H](C(=O)NCc3ccc(OC(F)(F)F)cc3)C2)cn1` [Example 787, (R)-4-(5-bromo-thiophene-2-sulfonyl)-3-(4-trifluoromethoxy-benzylcarbamoyl)-3,4,5,6-tetrahydro-2H-[1,2′]bipyrazinyl-5′-carboxylic acid], the IC50 in experiment [1] and in experiment [2] was below 100 nM throughout.
Consider `O=C(O)c1cnc(N2CCN(S(=O)(=O)c3ccc(N4CCCC4)cc3)[C@@H](C(=O)NCc3ccc(OC(F)(F)F)cc3)C2)cn1` [Example 788, (R)-4-(4-pyrrolidin-1-yl-benzenesulfonyl)-3-(4-trifluoromethoxy-benzylcarbamoyl)-3,4,5,6-tetrahydro-2H-[1,2′]bipyrazinyl-5′-carboxylic acid], for which the IC50 in experiment [1] and in experiment [2] was below 100 nM throughout.
For the compound `O=C(NCc1ccc(OC(F)(F)F)cc1)[C@H]1CN(c2cnc3cncnc3n2)CCN1S(=O)(=O)c1ccc(Br)s1` [Example 789, (R)-1-(5-bromo-thiophene-2-sulfonyl)-4-pteridin-7-yl-piperazine-2-carboxylic acid 4-trifluoromethoxy-benzylamide], the IC50 in experiment [1] and in experiment [2] was below 100 nM in each case.
Take `O=C(NCc1ccc(OC(F)(F)F)cc1)[C@H]1CN(c2cnc3cncnc3n2)CCN1S(=O)(=O)c1ccc([N+](=O)[O-])cc1` [Example 790, (R)-1-(4-nitro-benzenesulfonyl)-4-pteridin-7-yl-piperazine-2-carboxylic acid 4-trifluoromethoxy-benzylamide]: the IC50 in experiment [1] and in experiment [2] was below 100 nM each time.
`O=C(NCc1ccc(OC(F)(F)F)cc1)[C@H]1CN(c2cnc3cncnc3n2)CCN1S(=O)(=O)c1ccc(C(F)(F)F)cc1` [Example 791, (R)-4-pteridin-7-yl-1-(4-trifluoromethyl-benzenesulfonyl)-piperazine-2-carboxylic acid 4-trifluoromethoxy-benzylamide]: the IC50 in experiment [1] and in experiment [2] was below 100 nM throughout.
